Results from publication doi:10.1101/2024.08.13.607785v1 (biorxiv, 2024).
Like-named read-outs stand apart in the source and are kept apart here. Values belong to the compound of their own block, whether it stands above or below them.

Columns and labels:
Test in all cases: biochemical
Design in all cases: species or system human cell line lysate
[1] = target: Aurora kinase C ; AURKC ; Q9UQB9 (Homo sapiens, UniProt Q9UQB9)
[2] = target: Casein kinase I isoform delta ; CSNK1D ; P48730 (Homo sapiens, UniProt P48730)
[3] = target: Dual specificity tyrosine-phosphorylation-regulated kinase 1A ; DYRK1A ; Q13627 (Homo sapiens, UniProt Q13627)
[4] = target: Ephrin type-A receptor 5 ; EPHA5 ; P54756 (Homo sapiens, UniProt P54756)
[5] = target: Fructosamine-3-kinase ; FN3K ; Q9H479 (Homo sapiens, UniProt Q9H479)
[6] = target: Isoform 4 of Serine/threonine-protein kinase Nek2 ; NEK2 ; P51955-4 (Homo sapiens, UniProt P51955)
[7] = target: Isoform 6 of Calcium/calmodulin-dependent protein kinase type II subun ; CAMK2G ; Q13555-6 (Homo sapiens, UniProt Q13555)
[8] = target: Ketosamine-3-kinase ; FN3KRP ; Q9HA64 (Homo sapiens, UniProt Q9HA64)
[9] = target: Mitogen-activated protein kinase 3 ; MAPK3 ; P27361 (Homo sapiens, UniProt P27361)
[10] = target: Mitogen-activated protein kinase kinase kinase 11 ; MAP3K11 ; Q16584 (Homo sapiens, UniProt Q16584)
[11] = target: Mitogen-activated protein kinase kinase kinase 12 ; MAP3K12 ; Q12852 (Homo sapiens, UniProt Q12852)
[12] = target: Mitogen-activated protein kinase kinase kinase kinase 1 ; MAP4K1 ; Q92918 (Homo sapiens, UniProt Q92918)
[13] = target: Non-receptor tyrosine-protein kinase TNK1 ; TNK1 ; Q13470 (Homo sapiens, UniProt Q13470)
[14] = target: Serine/threonine-protein kinase 17B ; STK17B ; O94768 (Homo sapiens, UniProt O94768)
[15] = target: Serine/threonine-protein kinase N1 ; PKN1 ; Q16512 (Homo sapiens, UniProt Q16512)
[16] = target: Serine/threonine-protein kinase PAK 5 ; PAK5 ; Q9P286 (Homo sapiens, UniProt Q9P286)
[17] = target: Serine/threonine-protein kinase TAO3 ; TAOK3 ; Q9H2K8 (Homo sapiens, UniProt Q9H2K8)
[18] = target: Tyrosine-protein kinase CSK ; CSK ; P41240 (Homo sapiens, UniProt P41240)
[19] = read-out: BAY-1251152 (10 µM) / %Intensity relative to DMSO
[20] = read-out: BAY-1143572 (10 µM) / %Intensity relative to DMSO

Chain of Serine/threonine-protein kinase N1 ; PKN1 ; Q16512 (Q16512 whole entry, one chain of several): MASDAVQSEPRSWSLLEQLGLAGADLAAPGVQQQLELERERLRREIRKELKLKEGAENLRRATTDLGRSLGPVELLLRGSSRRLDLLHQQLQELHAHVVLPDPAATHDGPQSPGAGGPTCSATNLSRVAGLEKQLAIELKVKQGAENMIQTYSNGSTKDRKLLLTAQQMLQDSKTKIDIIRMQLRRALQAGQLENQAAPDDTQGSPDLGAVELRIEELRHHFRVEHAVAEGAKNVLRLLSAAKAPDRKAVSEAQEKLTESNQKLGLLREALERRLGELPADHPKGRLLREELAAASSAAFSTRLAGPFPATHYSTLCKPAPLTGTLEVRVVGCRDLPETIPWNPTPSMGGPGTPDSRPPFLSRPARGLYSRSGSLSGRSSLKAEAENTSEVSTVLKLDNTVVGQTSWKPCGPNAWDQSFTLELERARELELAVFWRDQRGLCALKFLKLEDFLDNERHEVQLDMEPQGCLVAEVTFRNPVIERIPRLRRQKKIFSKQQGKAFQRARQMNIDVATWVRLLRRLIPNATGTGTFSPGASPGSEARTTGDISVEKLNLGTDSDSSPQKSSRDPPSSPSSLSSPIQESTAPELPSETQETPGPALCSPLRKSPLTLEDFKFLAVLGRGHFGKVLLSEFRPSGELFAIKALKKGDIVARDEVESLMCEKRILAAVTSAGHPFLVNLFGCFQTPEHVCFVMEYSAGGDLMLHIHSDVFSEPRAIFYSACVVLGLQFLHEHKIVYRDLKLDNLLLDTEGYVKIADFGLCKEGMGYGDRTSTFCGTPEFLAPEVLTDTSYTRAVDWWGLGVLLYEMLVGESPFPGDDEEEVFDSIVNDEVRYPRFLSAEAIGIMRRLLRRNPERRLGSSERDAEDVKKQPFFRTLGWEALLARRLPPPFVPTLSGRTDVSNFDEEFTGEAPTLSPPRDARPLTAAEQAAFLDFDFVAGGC
Chain of Ephrin type-A receptor 5 ; EPHA5 ; P54756 (P54756 whole entry): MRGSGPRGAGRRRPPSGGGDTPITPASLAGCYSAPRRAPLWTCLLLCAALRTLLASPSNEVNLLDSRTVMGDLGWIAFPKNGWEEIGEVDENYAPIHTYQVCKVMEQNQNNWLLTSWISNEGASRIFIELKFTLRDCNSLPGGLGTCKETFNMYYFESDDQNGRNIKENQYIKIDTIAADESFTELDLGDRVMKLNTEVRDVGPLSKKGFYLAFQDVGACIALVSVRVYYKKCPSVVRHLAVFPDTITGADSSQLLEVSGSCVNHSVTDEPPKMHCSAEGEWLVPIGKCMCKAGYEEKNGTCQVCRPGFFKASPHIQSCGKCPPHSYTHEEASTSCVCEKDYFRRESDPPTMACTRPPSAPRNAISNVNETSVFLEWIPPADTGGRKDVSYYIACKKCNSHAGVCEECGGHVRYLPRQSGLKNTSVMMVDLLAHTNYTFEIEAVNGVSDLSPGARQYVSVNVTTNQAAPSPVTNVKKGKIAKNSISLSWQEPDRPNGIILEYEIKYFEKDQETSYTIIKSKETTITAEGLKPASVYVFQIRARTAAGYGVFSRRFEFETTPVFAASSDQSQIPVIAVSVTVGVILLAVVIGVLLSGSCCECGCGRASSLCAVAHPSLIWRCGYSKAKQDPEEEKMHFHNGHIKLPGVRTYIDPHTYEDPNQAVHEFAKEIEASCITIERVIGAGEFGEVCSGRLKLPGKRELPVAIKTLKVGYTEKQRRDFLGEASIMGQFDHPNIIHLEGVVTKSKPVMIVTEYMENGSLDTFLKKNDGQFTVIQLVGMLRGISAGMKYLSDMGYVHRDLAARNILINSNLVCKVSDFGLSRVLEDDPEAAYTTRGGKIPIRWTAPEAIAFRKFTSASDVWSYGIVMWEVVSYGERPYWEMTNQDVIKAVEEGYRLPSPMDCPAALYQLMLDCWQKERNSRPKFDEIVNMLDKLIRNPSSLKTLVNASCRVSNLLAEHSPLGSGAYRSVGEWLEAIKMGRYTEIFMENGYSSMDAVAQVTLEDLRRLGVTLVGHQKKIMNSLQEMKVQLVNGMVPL
Chain of Mitogen-activated protein kinase kinase kinase 11 ; MAP3K11 ; Q16584 (Q16584 whole entry): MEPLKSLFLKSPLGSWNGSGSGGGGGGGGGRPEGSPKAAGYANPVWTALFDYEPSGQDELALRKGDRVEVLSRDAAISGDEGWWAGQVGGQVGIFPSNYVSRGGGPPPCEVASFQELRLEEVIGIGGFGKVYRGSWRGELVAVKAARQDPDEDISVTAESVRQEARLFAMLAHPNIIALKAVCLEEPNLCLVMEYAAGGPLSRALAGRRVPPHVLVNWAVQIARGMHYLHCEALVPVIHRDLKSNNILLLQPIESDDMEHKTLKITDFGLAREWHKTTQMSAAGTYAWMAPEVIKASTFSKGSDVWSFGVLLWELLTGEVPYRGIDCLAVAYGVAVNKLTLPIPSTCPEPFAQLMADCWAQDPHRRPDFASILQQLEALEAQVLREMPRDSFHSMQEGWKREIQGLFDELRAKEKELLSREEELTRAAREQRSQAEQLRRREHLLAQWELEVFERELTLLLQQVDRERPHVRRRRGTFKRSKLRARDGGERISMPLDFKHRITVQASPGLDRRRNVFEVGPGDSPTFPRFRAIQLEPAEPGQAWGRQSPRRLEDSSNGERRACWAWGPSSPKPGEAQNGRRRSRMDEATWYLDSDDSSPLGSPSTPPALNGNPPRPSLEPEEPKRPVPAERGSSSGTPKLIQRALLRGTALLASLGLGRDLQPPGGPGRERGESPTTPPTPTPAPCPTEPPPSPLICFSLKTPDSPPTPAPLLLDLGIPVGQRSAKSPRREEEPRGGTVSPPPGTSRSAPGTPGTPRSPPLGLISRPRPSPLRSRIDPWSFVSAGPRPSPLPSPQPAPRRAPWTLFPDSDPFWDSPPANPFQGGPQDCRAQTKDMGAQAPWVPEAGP
Chain of Mitogen-activated protein kinase kinase kinase kinase 1 ; MAP4K1 ; Q92918 (Q92918 whole entry): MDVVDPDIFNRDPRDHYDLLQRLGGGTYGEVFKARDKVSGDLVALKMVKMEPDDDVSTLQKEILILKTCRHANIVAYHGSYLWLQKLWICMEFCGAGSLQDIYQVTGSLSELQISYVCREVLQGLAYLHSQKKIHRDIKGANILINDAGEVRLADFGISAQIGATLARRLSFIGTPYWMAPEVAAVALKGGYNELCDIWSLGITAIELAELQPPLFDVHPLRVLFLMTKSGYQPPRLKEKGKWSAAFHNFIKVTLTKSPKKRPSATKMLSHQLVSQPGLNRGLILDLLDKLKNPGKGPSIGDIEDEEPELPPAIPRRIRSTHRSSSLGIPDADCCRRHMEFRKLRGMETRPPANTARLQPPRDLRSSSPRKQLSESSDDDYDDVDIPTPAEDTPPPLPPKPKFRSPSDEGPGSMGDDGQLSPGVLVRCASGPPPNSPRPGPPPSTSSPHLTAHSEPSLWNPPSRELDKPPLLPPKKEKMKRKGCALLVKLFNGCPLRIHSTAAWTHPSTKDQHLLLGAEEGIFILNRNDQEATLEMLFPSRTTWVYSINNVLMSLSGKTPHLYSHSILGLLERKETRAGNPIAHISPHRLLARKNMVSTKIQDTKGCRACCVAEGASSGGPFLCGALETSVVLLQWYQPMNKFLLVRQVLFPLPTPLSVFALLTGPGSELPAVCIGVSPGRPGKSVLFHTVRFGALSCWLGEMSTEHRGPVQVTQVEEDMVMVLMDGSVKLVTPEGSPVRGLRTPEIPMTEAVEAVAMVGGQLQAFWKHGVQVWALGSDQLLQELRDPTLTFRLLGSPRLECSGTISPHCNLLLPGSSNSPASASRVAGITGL
Chain of Aurora kinase C ; AURKC ; Q9UQB9 (Q9UQB9 whole entry, canonical isoform): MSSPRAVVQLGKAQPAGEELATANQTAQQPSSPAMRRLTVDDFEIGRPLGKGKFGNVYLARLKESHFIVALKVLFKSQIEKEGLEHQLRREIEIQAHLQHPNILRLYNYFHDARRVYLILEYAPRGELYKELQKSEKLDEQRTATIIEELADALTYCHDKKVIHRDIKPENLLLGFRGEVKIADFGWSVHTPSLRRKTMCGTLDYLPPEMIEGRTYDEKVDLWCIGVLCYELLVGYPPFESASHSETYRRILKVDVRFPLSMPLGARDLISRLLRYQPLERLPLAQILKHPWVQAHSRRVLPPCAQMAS
Chain of Isoform 6 of Calcium/calmodulin-dependent protein kinase type II subun ; CAMK2G ; Q13555-6 (Q13555 whole entry, canonical isoform, one chain of several): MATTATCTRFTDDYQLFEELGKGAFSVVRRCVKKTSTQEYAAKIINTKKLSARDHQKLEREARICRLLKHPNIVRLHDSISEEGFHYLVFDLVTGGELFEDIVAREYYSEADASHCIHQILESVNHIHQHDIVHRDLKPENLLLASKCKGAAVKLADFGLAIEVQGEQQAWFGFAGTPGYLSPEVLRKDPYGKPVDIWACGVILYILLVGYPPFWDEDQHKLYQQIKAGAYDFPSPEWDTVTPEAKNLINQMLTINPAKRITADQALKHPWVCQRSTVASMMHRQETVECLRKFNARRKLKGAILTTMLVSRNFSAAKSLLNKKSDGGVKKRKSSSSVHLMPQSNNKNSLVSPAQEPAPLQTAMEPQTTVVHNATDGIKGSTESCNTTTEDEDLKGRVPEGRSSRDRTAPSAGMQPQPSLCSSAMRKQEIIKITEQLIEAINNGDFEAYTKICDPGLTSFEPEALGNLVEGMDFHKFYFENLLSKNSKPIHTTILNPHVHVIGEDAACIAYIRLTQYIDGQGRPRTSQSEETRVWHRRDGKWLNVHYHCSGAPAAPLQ
Chain of Serine/threonine-protein kinase 17B ; STK17B ; O94768 (O94768 whole entry, one chain of several): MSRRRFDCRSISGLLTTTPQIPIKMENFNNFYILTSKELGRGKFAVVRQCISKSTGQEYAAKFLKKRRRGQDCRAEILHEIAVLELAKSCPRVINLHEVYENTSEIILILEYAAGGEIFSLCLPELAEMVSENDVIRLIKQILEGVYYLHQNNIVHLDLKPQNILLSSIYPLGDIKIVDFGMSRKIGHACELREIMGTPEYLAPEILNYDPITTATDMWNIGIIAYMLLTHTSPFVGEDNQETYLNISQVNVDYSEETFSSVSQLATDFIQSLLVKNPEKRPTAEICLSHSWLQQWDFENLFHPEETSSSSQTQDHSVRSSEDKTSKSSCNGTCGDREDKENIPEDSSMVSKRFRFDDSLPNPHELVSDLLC

- remaining activity at 10 µM [1, 19]: 41.7%
- remaining activity at 10 µM [2, 19]: 117%
- remaining activity at 10 µM [3, 19]: 60.2%
- remaining activity at 10 µM [4, 19]: 109%
- remaining activity at 10 µM [5, 19]: 106%
- remaining activity at 10 µM [6, 19]: 114%
- remaining activity at 10 µM [7, 19]: 94.9%
- remaining activity at 10 µM [8, 19]: 114%
- remaining activity at 10 µM [9, 19]: 96.8%
- remaining activity at 10 µM [10, 19]: 81%
- remaining activity at 10 µM [11, 19]: 109%
- remaining activity at 10 µM [12, 19]: 71.6%
- remaining activity at 10 µM [13, 19]: 109%
- remaining activity at 10 µM [14, 19]: 108%
- remaining activity at 10 µM [15, 19]: 137%
- remaining activity at 10 µM [16, 19]: 143%
- remaining activity at 10 µM [17, 19]: 84%
- remaining activity at 10 µM [18, 19]: 106%
Structure (SMILES): COc1cc(F)ccc1-c1cc(Nc2cc(CS(C)(=N)=O)ccn2)ncc1F (stereo not drawn) [BAY-1251152]

- remaining activity at 10 µM [1, 20]: 105%
- remaining activity at 10 µM [2, 20]: 121%
- remaining activity at 10 µM [3, 20]: 76.3%
- remaining activity at 10 µM [4, 20]: 99.7%
- remaining activity at 10 µM [5, 20]: 114%
- remaining activity at 10 µM [6, 20]: 115%
- remaining activity at 10 µM [7, 20]: 105%
- remaining activity at 10 µM [8, 20]: 117%
- remaining activity at 10 µM [9, 20]: 104%
- remaining activity at 10 µM [10, 20]: 105%
- remaining activity at 10 µM [11, 20]: 114%
- remaining activity at 10 µM [12, 20]: 101%
- remaining activity at 10 µM [13, 20]: 113%
- remaining activity at 10 µM [14, 20]: 90.7%
- remaining activity at 10 µM [15, 20]: 156%
- remaining activity at 10 µM [16, 20]: 138%
- remaining activity at 10 µM [17, 20]: 111%
- remaining activity at 10 µM [18, 20]: 112%
Structure (SMILES): COc1cc(F)ccc1-c1ncnc(Nc2cccc(C[S@](C)(=N)=O)c2)n1 [BAY-1143572]
